From patent EP4789670A1, “PREPARATION CONTAINING URACIL DERIVATIVE” (Shionogi & Co., Ltd, priority 2023, dated 2025)
pEC50: −log10 of the molar value. In brackets after ≈: the same amount, converted by molar mass.

Tests used:
physchem = type: physicochemical
Experimental: The solid dispersion obtained in Example 4D and the anhydrous crystal alone of the compound represented by Formula (I) (Example 4F-1) were added to various test media to prepare suspensions of 30 to 50 mL. The prepared suspensions were placed in centrifuge tubes and shaken at a shaking speed of 100 rpm or higher. After 60 minutes from the start of shaking, 5 mL of each suspension was collected and immediately filtered through a filter (Chromadisc, 0.45 µm, 25A) to obtain test samples.

SARS-CoV-2 = test: Cytopathic effect (CPE) suppression effect confirmation test using HEK293T/ACE2-TMPRSS2 cells; type: cell-based; settings: Severe acute respiratory syndrome coronavirus 2, HEK-293T, 72 h, SARS-CoV-2 200-600 TCID50/well, cultured 3 days, CellTiter-Glo 2.0, read-out: 50% SARS-CoV-2 infected cell death inhibitory concentration (EC50)
Experimental: Test Example 1: Cytopathic Effect (CPE) Suppression Effect Confirmation Test Using HEK293T Cells Expressing Human TMPRSS2, ACE2 (HEK293T/ACE2-TMPRSS2 Cells)
The sample to be tested is diluted in advance to an appropriate concentration with DMSO, and a 2- to 5-fold series of serial dilutions is prepared and then dispensed into a 384-well plate.
HEK293T/ACE2-TMPRSS2 cells (GCP-SL222, 5×10^3 cells/well) and SARS-CoV-2 (200-600 TCID50/well) are mixed in a medium (MEM, 2% FBS, penicillin-streptomycin), the mixture is dispensed into the wells in which the sample to be tested has been introduced, and then the cells are cultured for 3 days in a CO2 incubator.
The plate that has been cultured for 3 days is returned to room temperature, subsequently CellTiter-Glo (registered trademark) 2.0 is dispensed into each well, and the plate is mixed using a plate mixer. After standing for a predetermined period of time, the luminescence signal (Lum) is measured using a plate reader.

Question: Which results are given for `N#CCn1c(N2CC3(C2)CC(F)(F)C3)c(-c2ccc(F)c(Cl)c2)c(=O)n(-c2cncc(Cl)c2)c1=O` [Example 4F-1]?
Answer: solubility at 1 h (physchem; diluted mcilvaine buffer, pH 4): 0.64 µg/mL (≈ 1.23 µM); solubility at 1 h (physchem; jp first dissolution test medium, pH 1.2): 1.08 µg/mL (≈ 2.07 µM); solubility at 1 h (physchem; jp second dissolution test medium, pH 6.8): 0.61 µg/mL (≈ 1.17 µM); solubility at 1 h (physchem; purified water): 0.71 µg/mL (≈ 1.36 µM)

Question: With `N#CCn1c(N2CC3(C2)CC(F)(F)C3)c(-c2ccc(F)c(Cl)c2)c(=O)n(-c2cncc(Cl)c2)c1=O` [Compound (I)] as the compound, how does the pEC50 (SARS-CoV-2) read?
Answer: 8.78
